Earlier results as cited in the CATMoS acute toxicity set (Mansouri et al. 2021).
Where “and” joins values, the source holds several entries; their conditions need not be identical. Equal values may be shown once.

Test: rat acute oral toxicity
Conditions: in vivo

Structure (SMILES) | LD50
C[C@H](CCC(=O)O)[C@H]1CC[C@H]2[C@@H]3CC[C@@H]4C[C@H](O)CC[C@]4(C)[C@H]3C[C@H](O)[C@]12C | 1370 mg/kg and 1000 mg/kg
CCCCCCC#CC(=O)OC | 2220 mg/kg
CCCCCCCCSC(=O)Oc1cc(Cl)nnc1-c1ccccc1 | 1970 mg/kg
CCCc1ccn[nH]1 | 616 mg/kg
CNC(C)CC1CCCCC1 (stereo not drawn) | 83 mg/kg
CC1CC2CN(C)CC(C2O)C1N1CCCC1 (stereo not drawn) | 500 mg/kg
CC(=O)C=CC1=C(C)CCCC1(C)C | 4590 mg/kg
COc1nc(C)nc(NC(=O)NS(=O)(=O)c2ccccc2CCC(F)(F)F)n1 | 986 mg/kg
CCN(CC)c1ccc(N)cc1 | 200 mg/kg
ClC1=C(Cl)[C@]2(Cl)[C@H]3[C@H]([C@H]4C=C[C@H]3C4)[C@@]1(Cl)C2(Cl)Cl | 7 mg/kg
CC(O)c1cc(N)cc(C(F)(F)F)c1 (stereo not drawn) | 880 mg/kg
CCOP(=S)(Oc1cccc2cccnc12)c1ccccc1 (stereo not drawn) | 150 mg/kg
CC(C)(C)CCCCC(=O)O | 2070 mg/kg
CCOC(C)CO (stereo not drawn) | 7110 mg/kg
ClCC=C(Cl)CCl | 224 mg/kg
Cc1ccc(C(N)=O)cc1N | 1730 mg/kg
O=[N+]([O-])c1cc2nc(C(F)(F)F)[nH]c2cc1Cl | 5.55 mg/kg
CCc1cc2c(cc1C=O)C(C)(C)CCC2(C)C | 3200 mg/kg
Cc1c(C(=O)NCCO)[n+]([O-])c2ccccc2[n+]1[O-] | 1720 mg/kg
CCC(C)C(CC)C(N)=O (stereo not drawn) | 760 mg/kg
Cc1nc(-c2cccnc2)sc1[N+](=O)[O-] | 815 mg/kg
CNC(=O)Oc1ccc(C)c(C)c1C | 318 mg/kg
CC(C)=CCC/C(C)=C\CO | 4500 mg/kg
OCCc1ccncc1 | 3500 mg/kg

Structure (SMILES) | LD50
O=C(O)CS(=O)(=O)O | 3160 mg/kg
CCCOC=O | 3980 mg/kg
CCOC(=O)CCC1(CCC(=O)OCC)c2ccccc2-c2ccccc21 | 6170 mg/kg
O=C1C(CCSc2ccccc2)C(=O)N(c2ccccc2)N1c1ccccc1 | 450 mg/kg
COc1ccc(NS(=O)(=O)c2ccc(N)cc2)nn1 | 2740 mg/kg
O=C(O)C(O)(c1ccccc1)C1CCCCC1 (stereo not drawn) | 2670 mg/kg
O=C(NCC1CCCCN1)c1cc(OCC(F)(F)F)ccc1OCC(F)(F)F (stereo not drawn) | 1350 mg/kg
COCCOC(=O)c1ccccc1C(=O)OCCOC | 4400 mg/kg
CCOP(=S)(OCC)SC(CC(=O)OCSC)C(=O)OCSC (stereo not drawn) | 3.7 mg/kg
CC(C)NCC(O)COc1cccc2cc(C(C)O)oc12 (stereo not drawn) | 2130 mg/kg
CCC(C)Nc1ccc(NC(C)CC)cc1 (stereo not drawn) | 148 mg/kg
O=C(CCCN1CCC2(CCCCC2)CC1)c1ccc(F)cc1 | 200 mg/kg
Fc1c(Br)c(F)c2nc(C(F)(F)F)[nH]c2c1Br | 7.23 mg/kg
C=CC(C)=O | 23.1 mg/kg
C[C@@H]1CCCCN1N=O | 600 mg/kg
C[C@H](CCC(=O)O)[C@H]1CC[C@H]2[C@@H]3[C@H](O)C[C@@H]4C[C@H](O)CC[C@]4(C)[C@H]3CC[C@]12C | 4000 mg/kg
O=[N+]([O-])c1ccc2ccccc2c1 | 4400 mg/kg
O=c1occo1 | 300 mg/kg
CCC(C)c1cc([N+](=O)[O-])cc([N+](=O)[O-])c1OC(=O)OC(C)C (stereo not drawn) | 59 mg/kg
CC(CN(C)C)CN1c2ccccc2OCOc2ccc(Cl)cc21 (stereo not drawn) | 600 mg/kg
CO[C@H]1CC[C@H](O[C@@H]2C[C@]3(C[C@H](O)[C@@H](C)[C@@H]([C@@H](C)C=C(C)C(=O)[C@H](C)C[C@H](C)C(=O)O)O3)O[C@]2(C)[C@H]2CC[C@@H](C)C3(O[C@@H]([C@@H]4O[C@](O)(CO)[C@@H](C)C[C@H]4C)C[C@@H]3C)O2)O[C@@H]1C (stereo partly drawn) | 7.5 mg/kg
N#CCCl | 220 mg/kg
COc1c(O)cc(Cl)c(Cl)c1Cl | 2980 mg/kg
CCCCC | 400 mg/kg

Structure (SMILES) | LD50
Clc1nc(Cl)c(Cl)[nH]1 | 11 mg/kg
CS(=O)(=O)c1ccc(CN(CCO)C(=O)C(Cl)Cl)cc1 | 12500 mg/kg
N#CC(=Cc1ccc(Cl)cc1Cl)C(=O)O | 50 mg/kg
O=C1N=C2c3ccccc3N=CN2C1=Cc1ccc([N+](=O)[O-])cc1 | 1290 mg/kg
O=C(NC1CCN(CCc2c[nH]c3ccccc23)CC1)c1ccccc1 | 1800 mg/kg
O=C1CN=C(c2ccccn2)c2cc(Br)ccc2N1 | 1950 mg/kg
CCOc1c(N2CCOCC2)cnn(C)c1=O | 1900 mg/kg
CC(N)C1(C)CCCO1 (stereo not drawn) | 130 mg/kg
C=CCN1CCCC1=Nc1ccc(Cl)c(Cl)c1 | 1850 mg/kg
CC1(C)CC2(NC(=O)N(CCCN3CCC(O)CC3)C2=O)c2cc(F)ccc2O1 (stereo not drawn) | 780 mg/kg
NNC(=O)CSc1cc(Oc2ccc(Cl)cc2)ncn1 | 800 mg/kg
O=C(O)C(Cc1cc(I)c(O)c(I)c1)c1ccccc1 (stereo not drawn) | 1100 mg/kg
CC(=O)c1c(=O)cc(C)oc1=O | 706 mg/kg
CCOC(=O)N(Cc1ccccc1)C1CC1 | 1380 mg/kg
O=[N+]([O-])c1ccc(OP(=O)(OCCCl)OCCCl)cc1 | 37 mg/kg
CNC(=N)NC(=O)Nc1c(C)cccc1C | 187 mg/kg and 184 mg/kg
C=CC(=O)OCC(CC)(COC(=O)C=C)COC(=O)C=C | 5190 mg/kg
O[C@@H](c1cc(C(F)(F)F)nc2c(C(F)(F)F)cccc12)[C@H]1CCCCN1 | 880 mg/kg
CC1=COC(C)(C=O)CC1 (stereo not drawn) | 2460 mg/kg
CCCOc1ccc(C=CC(=S)OCC)cc1OC | 1010 mg/kg
C=CCNC(N)=S | 200 mg/kg
CN(C)CCCC(CCc1ccc2c(c1)OCO2)CCc1ccc2c(c1)OCO2 | 1230 mg/kg
Cl[C@H]1[C@H](Cl)[C@@H](Cl)[C@H](Cl)[C@H](Cl)[C@H]1Cl (racemic) | 177 mg/kg
CN1[C@@H]2CCC[C@H]1C[C@@H](NC(=O)c1nn(C)c3ccccc13)C2 | 350 mg/kg

Structure (SMILES) | LD50
CN(C)CCCN1c2ccccc2Sc2ccccc21 | 350 mg/kg and 400 mg/kg
O=C1CCc2cc(C=CCN3CCN(c4cccc(Cl)c4)CC3)ccc2N1 | 500 mg/kg
O=C(NN=C1SCCS1)c1ccccc1 | 72.8 mg/kg
CC(=O)OC1CCCCC1 | 6730 mg/kg
CN(CCCCCCN(C)C(=O)Oc1ccc[n+](C)c1)C(=O)Oc1ccc[n+](C)c1 | 10 mg/kg
C[N+]1(CC2COC(c3ccccc3)(C3CCCCC3)O2)CCCCC1 (stereo not drawn) | 494 mg/kg
C1CCNC1 | 300 mg/kg
CCC(C)=CCCC(C)=CC#N | 2600 mg/kg
O=C(NCNC(=O)NC1C(=O)NC(=O)N1CO)NC1C(=O)NC(=O)N1CO (stereo not drawn) | 11300 mg/kg
C=CC(=O)OCCCl | 180 mg/kg
COP(=S)(OC)SC1CSC=CO1 (stereo not drawn) | 100 mg/kg
CCOC(=O)C1=C(C)NC(C)=C(C(=O)OC)C1c1cccc([N+](=O)[O-])c1 (stereo not drawn) | 15400 mg/kg
Cc1c(C(=O)N(C)C)nnn1-c1ccccc1 | 500 mg/kg
c1ccc(CCc2ccccc2)cc1 | 4520 mg/kg
COc1nccc(C(F)(F)F)c1S(=O)(=O)Cl | 3130 mg/kg
O=C(c1ccccc1)c1cccc(NS(=O)(=O)C(F)F)c1 | 750 mg/kg and 450 mg/kg
C=CC(=O)OCC(CC)CC | 6490 mg/kg
OCc1c(F)c(F)c(F)c(F)c1F | 900 mg/kg
S=C1SSC2=NCCN12 | 380 mg/kg
O=C(O)c1cc(O)cc(C(=O)O)c1 | 11200 mg/kg
CCC(CC)(CO)CO | 850 mg/kg
OCCN(CCO)c1nc(-c2ccccc2)c(-c2ccccc2)o1 | 11400 mg/kg
COC(=O)C1C2CC3c4[nH]c5cc(OC)ccc5c4CCN3CC2CC(OC2CCCCO2)C1OC (stereo not drawn) | 173 mg/kg
CC(CN1C(=O)N(CC2CO2)C(C)(C)C1=O)OCC1CO1 (stereo not drawn) | 1800 mg/kg

Structure (SMILES) | LD50
Nc1ccc2c(O)cc(S(=O)(=O)O)cc2c1 | 11500 mg/kg
C=CC(=C)CCCC(C)(C)OC(C)=O | 6300 mg/kg
CC[P+](c1ccccc1)(c1ccccc1)c1ccccc1 | 200 mg/kg and 79 mg/kg
CCC1(c2cccc(O)c2)CCCCN(C)C1 (stereo not drawn) | 1260 mg/kg
CC(O)COC[C@H]1O[C@@H](O)[C@H](OCC(C)O)[C@@H](OCC(C)O)[C@@H]1O (stereo partly drawn) | 10200 mg/kg
OCCCS | 116 mg/kg
CCOCCC#N | 3200 mg/kg
O=C(O)COc1nn(Cc2ccccc2)c2ccccc12 | 1200 mg/kg
O=[N+]([O-])c1c(Cl)cc(Cl)c([N+](=O)[O-])c1Cl | 500 mg/kg
CC1(C)C(C(=O)OC(C#N)c2cccc(Oc3ccccc3)c2)C1(C)C (stereo not drawn) | 18 mg/kg
ClCCBr | 64 mg/kg
CCOP(=S)(OCC)SCn1nnc2ccccc2c1=O | 7 mg/kg
CCNC(=S)NCC | 316 mg/kg
CCOC(OCC)OCC | 7060 mg/kg
Nc1ccc(C(F)(F)F)c(NC(=O)c2cccnc2)c1 | 800 mg/kg
C=CCN(C1=NCCN1)c1c(Cl)cccc1Cl | 500 mg/kg and 233 mg/kg
C/C=C\COCN(C(=O)CCl)c1c(CC)cccc1CC | 1630 mg/kg
CCN[C@H]1C[C@H](C)S(=O)(=O)c2sc(S(N)(=O)=O)cc21 | 1930 mg/kg
COc1ccc(N)c(OC)c1 | 464 mg/kg
COc1cc(N)cn[n+]1-c1ccccc1 | 1330 mg/kg
CN(C)CCNN | 2110 mg/kg
CN(C)CC/C=C1/c2ccccc2CSc2ccccc21 | 260 mg/kg
N#CCCC1(CCC#N)c2ccccc2-c2ccccc21 | 2180 mg/kg
O=C(O)CF | 4.68 mg/kg

Structure (SMILES) | LD50
C=CCOc1ccccc1C(=O)NCCO | 1150 mg/kg
O=[N+]([O-])c1ccc(NS(=O)(=O)c2ccc(Cl)c(C(F)(F)F)c2)c(Cl)c1 | 132 mg/kg
COCCOCc1ccccc1 | 2290 mg/kg
c1nnc(NCNc2nncs2)s1 | 260 mg/kg
CCSP(=O)(CCl)SCC | 35 mg/kg
O=[N+]([O-])c1ccc(F)cc1F | 200 mg/kg
Nc1nc(N)nc(-c2cc(Cl)ccc2Cl)n1 | 2900 mg/kg
CN(C)CCCOc1nn(Cc2ccccc2)c2ccccc12 | 740 mg/kg and 950 mg/kg
Cc1ccc(/N=N/c2c(O)c(S(=O)(=O)O)cc3ccc(S(=O)(=O)O)cc23)c(C)c1 | 23200 mg/kg
COP(=O)(OC)C(OC(=O)CCl)C(Cl)(Cl)Cl (stereo not drawn) | 344 mg/kg
CC(C)CNC(=S)NCC(C)C | 800 mg/kg
COP(=O)(OC)OC1=C(Cl)C2C=CCC12 (stereo not drawn) | 96 mg/kg
CCN(CC)C(=O)c1ccc(O)c(OC)c1 | 154 mg/kg
OC(c1ccccc1)(c1ccccc1)C1CN2CCC1CC2 (stereo not drawn) | 440 mg/kg
COc1ccc2c(c1)OC(C)(C)[C@H](c1ccccc1)[C@H]2c1ccc(OCCBr)cc1 | 500 mg/kg
c1ccc(P(C2CCCCC2)C2CCCCC2)cc1 | 820 mg/kg
C=C(C)c1cccc(C(C)(C)N=C=O)c1 | 3100 mg/kg
CCOCCC(OCC)OCC | 1600 mg/kg
O=C(CF)NC(=O)Nc1ccccc1 | 25 mg/kg
CC(C)(C)CC(C)(C)SSSSCC(C)(CC(C)(C)C)SSSSC(C)(C)CC(C)(C)C (stereo not drawn) | 3640 mg/kg
CC(C)(C)[C@@H](O)[C@@H](Cc1ccc(Cl)cc1)n1cncn1 (single isomer, unassigned) | 1300 mg/kg
COc1ccc2c(c1)OC(C)(C)C(c1ccccc1)=C2c1ccc(OCCN2CCCC2)cc1 | 150 mg/kg
CCCCCCC(=O)OCCOCCOCCOCCOC(=O)CCCCCC | 25000 mg/kg
